molecular target: T1, mouse TRPM3α2 (mTRPM3) ion channel (Mus musculus, UniProt J9SQF3); assay: Monitoring the TRPM3 ion channel driven Ca2+ uptake (Fluo-4 AM assay); assay type: cell-based; details: TRPM3 overexpressing flip-in HEK293 cells, channel stimulated with Pregnenolone sulfate (PS) 50 μM
T1 construct: expressed in transfected cells; host or cells: flip-in HEK293
Experimental: Monitoring the TRPM3 ion channel driven Ca^2+ uptake.
In order to monitor the inhibition of the mouse TRPM3α2 (mTRPM3) ion channel by the compounds of the invention, a cellular system making use of an mTRPM3alpha2 or hTRPM3 overexpressing cell line (flip-in HEK293) was used. The TRPM3 channel was stimulated/opened with Pregnenolone sulfate (PS) (50 μM) which results in Ca^2+ influx.
For mTRPM3, the intracellular Ca^2+ was measured with a Calcium responsive dye, Fluor-4 AM ester (Invitrogen). Cells were cultured until a confluence of 80-90%, washed with Versene (Invitrogen) and detached from the surface by a short incubation with 0.05% Trypsin (Invitrogen). The trypsination process was stopped by the addition of complete cell culture medium (DMEM, glutamax,10% FCS,NEAA,Pen-Strep). Cells were collected and resuspended in Krebs buffer without Calcium at RT.
Prior the cell seeding (±2000 cells/well into a black, 384 well plate (Greiner)) the diluted compound was added in the assay plate, together with the PS dissolved in Krebs buffer containing Calcium. […] Directly after cell addition the plates were read on an Envision fluorescence reader (Perkin Elmer) by an Excitation of 485 nm and emission at 535 nm.
Channel inhibition was calculated compared to a non-PS stimulated control versus a condition stimulated with PS (50 μM) with vehicle. The ability of the compounds of the invention to inhibit this activity was determined as: Percentage inhibition=[1−((RFU determined for sample with test compound present−RFU determined for sample with positive control inhibitor) divided by (RFU determined in the presence of vehicle−RFU determined for sample with positive control inhibitor))]*100.
The activities of the Example compounds tested are depicted in the table below. The activity ranges A, B and C refer to IC50 values in the Fluo-4 AM assay as follows: “A”: IC50<1 μM; “B”: 1 μM≤IC50≤20 μM and “C”: IC50>20 μM

T1 sequence (J9SQF3 1-1709 isoform J9SQF3-12): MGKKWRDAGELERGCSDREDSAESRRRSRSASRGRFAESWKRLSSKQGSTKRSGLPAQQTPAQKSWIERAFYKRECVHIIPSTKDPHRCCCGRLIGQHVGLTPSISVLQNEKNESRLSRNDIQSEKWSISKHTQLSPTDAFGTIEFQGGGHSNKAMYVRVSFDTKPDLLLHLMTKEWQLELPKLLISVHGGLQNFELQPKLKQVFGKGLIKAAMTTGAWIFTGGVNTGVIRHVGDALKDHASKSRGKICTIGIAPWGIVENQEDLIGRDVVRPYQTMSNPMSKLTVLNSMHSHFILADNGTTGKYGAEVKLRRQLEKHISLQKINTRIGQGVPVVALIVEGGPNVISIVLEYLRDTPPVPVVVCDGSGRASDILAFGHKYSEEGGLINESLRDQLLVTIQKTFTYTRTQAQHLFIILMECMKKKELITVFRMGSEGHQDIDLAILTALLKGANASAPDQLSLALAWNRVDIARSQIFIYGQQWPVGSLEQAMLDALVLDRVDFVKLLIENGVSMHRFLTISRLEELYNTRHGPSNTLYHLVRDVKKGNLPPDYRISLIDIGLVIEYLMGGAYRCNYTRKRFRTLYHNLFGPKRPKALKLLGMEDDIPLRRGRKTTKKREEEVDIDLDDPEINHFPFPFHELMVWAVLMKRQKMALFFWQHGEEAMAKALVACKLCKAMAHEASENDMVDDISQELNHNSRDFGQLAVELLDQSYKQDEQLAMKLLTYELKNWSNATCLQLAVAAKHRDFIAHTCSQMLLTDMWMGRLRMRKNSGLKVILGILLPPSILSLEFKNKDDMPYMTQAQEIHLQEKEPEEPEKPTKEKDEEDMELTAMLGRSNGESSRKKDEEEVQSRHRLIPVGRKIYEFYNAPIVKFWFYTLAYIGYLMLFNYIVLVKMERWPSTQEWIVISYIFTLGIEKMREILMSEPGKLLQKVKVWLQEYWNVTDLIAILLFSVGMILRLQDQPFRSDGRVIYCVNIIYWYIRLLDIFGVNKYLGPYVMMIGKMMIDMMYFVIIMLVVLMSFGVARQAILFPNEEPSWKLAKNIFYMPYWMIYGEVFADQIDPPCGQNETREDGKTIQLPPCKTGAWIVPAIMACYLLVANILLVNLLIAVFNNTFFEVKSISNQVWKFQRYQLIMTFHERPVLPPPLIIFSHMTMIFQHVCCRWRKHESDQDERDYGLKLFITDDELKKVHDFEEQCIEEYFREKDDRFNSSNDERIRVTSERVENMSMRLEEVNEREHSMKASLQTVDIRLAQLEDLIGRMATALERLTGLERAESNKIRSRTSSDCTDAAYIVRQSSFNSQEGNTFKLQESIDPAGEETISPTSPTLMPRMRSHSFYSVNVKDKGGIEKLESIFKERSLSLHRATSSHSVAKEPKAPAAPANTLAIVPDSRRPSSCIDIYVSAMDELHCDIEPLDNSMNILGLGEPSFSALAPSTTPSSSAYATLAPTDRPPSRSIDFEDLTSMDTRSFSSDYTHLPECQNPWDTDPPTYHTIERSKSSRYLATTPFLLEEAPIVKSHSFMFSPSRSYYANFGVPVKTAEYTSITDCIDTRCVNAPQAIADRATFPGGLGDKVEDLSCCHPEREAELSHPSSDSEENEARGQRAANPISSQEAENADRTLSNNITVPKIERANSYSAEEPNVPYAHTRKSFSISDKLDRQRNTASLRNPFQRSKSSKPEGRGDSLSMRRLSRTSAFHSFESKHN

| SMILES | IC50 [µM] |
| --- | --- |
| Cc1sc2ccc(OCC3COC3)cc2c1C(=O)NC(C)(CO)C(N)=O (single isomer, unassigned) [Cpd 068 - En2, 3-hydroxy-2-methyl-2-({2-methyl-5-[(oxetan-3-yl)methoxy]-1-benzothiophen-3-yl}formamido)propanamide] | 1 to 20 |
| Cc1sc2ccc(OCc3ccccn3)cc2c1C(=O)N[C@@H](CO)C(N)=O [Cpd 052, (2S)-3-hydroxy-2-({2-methyl-5-[(pyridin-2-yl)methoxy]-1-benzothiophen-3-yl}formamido)propanamide] | < 1 |
| Cc1sc2ccc(OCc3ccccc3)cc2c1C(=O)O [Cpd 108, 5-(benzyloxy)-2-methyl-1-benzothiophene-3-carboxylic acid] | < 1 |
| Cc1sc2ccc(OCc3ccccn3)cc2c1C(=O)NC1(CO)CCOCC1 [Cpd 082, N-[4-(hydroxymethyl)oxan-4-yl]-2-methyl-5-[(pyridin-2-yl)methoxy]-1-benzothiophene-3-carboxamide] | 1 to 20 |
| Cc1ncc(COc2ccc3sc(C)c(C(=O)NC4(C(N)=O)CCOC4)c3c2)s1 (stereo not shown) [Cpd 020, 3-{2-methyl-5-[(2-methyl-1,3-thiazol-5-yl)methoxy]-1-benzothiophene-3-amido}oxolane-3-carboxamide] | < 1 |
| Cc1sc2ccc(OCC3CC3)cc2c1C(=O)NC(C)(C)C(N)=O [Cpd 061, 2-{[5-(cyclopropylmethoxy)-2-methyl-1-benzothiophen-3-yl]formamido}-2-methylpropanamide] | < 1 |
| Cc1sc2ccc(OCc3ccccc3F)cc2c1C(=O)NC1CCNCC1(F)F (single isomer, unassigned) [Cpd 095 - En2, N-(3,3-difluoropiperidin-4-yl)-5-[(2-fluorophenyl)methoxy]-2-methyl-1-benzothiophene-3-carboxamide] | 1 to 20 |
| Cc1ncsc1COc1ccc2sc(C)c(C(=O)N[C@@H]3CCN(CCO)C3=O)c2c1 [Cpd 028, N-[(3R)-1-(2-hydroxyethyl)-2-oxopyrrolidin-3-yl]-2-methyl-5-[(4-methyl-1,3-thiazol-5-yl)methoxy]-1-benzothiophene-3-carboxamide] | 1 to 20 |
| Cc1sc2ccc(OCc3ccccc3)cc2c1C(=O)N[C@H](C)C(N)=O [Cpd 001, (2R)-2-{[5-(benzyloxy)-2-methyl-1-benzothiophen-3-yl]formamido}propanamide] | < 1 |
| Cc1sc2ccc(OCc3cccnc3C(F)(F)F)cc2c1C(=O)NC1CCNC1=O (stereo not shown) [Cpd 094, 2-methyl-N-(2-oxopyrrolidin-3-yl)-5-{[2-(trifluoromethyl)pyridin-3-yl]methoxy}-1-benzothiophene-3-carboxamide] | < 1 |
| Cc1sc2ccc(OCc3cccnc3O)cc2c1C(=O)N[C@@H](C)C(N)=O [Cpd 010, (2S)-2-({5-[(2-hydroxypyridin-3-yl)methoxy]-2-methyl-1-benzothiophen-3-yl}formamido)propanamide] | < 1 |
| Cc1sc2ccc(OCc3ccccc3F)cc2c1C(=O)NC1(CO)CCOCC1 [Cpd 081, 5-[(2-fluorophenyl)methoxy]-N-[4-(hydroxymethyl)oxan-4-yl]-2-methyl-1-benzothiophene-3-carboxamide] | < 1 |
| Cc1sc2ccc(OCc3ccccc3)cc2c1C(=O)NCCN(C)C [Cpd 115, 5-(benzyloxy)-N-[2-(dimethylamino)ethyl]-2-methyl-1-benzothiophene-3-carboxamide] | 1 to 20 |
| Cc1sc2ccc(OCc3ccccc3)cc2c1C(=O)NC1(CO)CC1 [Cpd 073, 5-(benzyloxy)-N-[1-(hydroxymethyl)cyclopropyl]-2-methyl-1-benzothiophene-3-carboxamide] | 1 to 20 |
| Cc1sc2ccc(OCc3ccccc3F)cc2c1C(=O)N[C@H](C)C(N)=O [Cpd 002, (2R)-2-({5-[(2-fluorophenyl)methoxy]-2-methyl-1-benzothiophen-3-yl}formamido)propanamide] | < 1 |
| Cc1sc2ccc(OCc3ccccc3)cc2c1C(=O)NC(C)(C)C(N)=O [Cpd 062, 2-{[5-(benzyloxy)-2-methyl-1-benzothiophen-3-yl]formamido}-2-methylpropanamide] | < 1 |
| Cc1sc2ccc(OCc3ccccc3)cc2c1C(=O)N[C@H]1CCNC1=O [Cpd 060, 5-(benzyloxy)-2-methyl-N-[(3S)-2-oxopyrrolidin-3-yl]-1-benzothiophene-3-carboxamide] | < 1 |
| Cc1ncc(COc2ccc3sc(C)c(C(=O)NC4(CO)CCOCC4)c3c2)s1 [Cpd 024, N-[4-(hydroxymethyl)oxan-4-yl]-2-methyl-5-[(2-methyl-1,3-thiazol-5-yl)methoxy]-1-benzothiophene-3-carboxamide] | 1 to 20 |
| Cc1sc2ccc(OCc3ccccc3F)cc2c1C(=O)N[C@@H](C)C(N)=O [Cpd 007, (2S)-2-({5-[(2-fluorophenyl)methoxy]-2-methyl-1-benzothiophen-3-yl}formamido)propanamide] | < 1 |
| Cc1sc2ccc(OCC3CC3)cc2c1C(=O)NC(C)(CO)CO [Cpd 069, 5-(cyclopropylmethoxy)-N-(1,3-dihydroxy-2-methylpropan-2-yl)-2-methyl-1-benzothiophene-3-carboxamide] | < 1 |
| CN(C)C1(CNC(=O)c2c(C(F)F)sc3ccc(OCc4ccccc4)cc23)CCCC1 [Cpd 112, 5-(benzyloxy)-2-(difluoromethyl)-N-{[1-(dimethylamino)cyclopentyl]methyl}-1-benzothiophene-3-carboxamide] | 1 to 20 |
| Cc1sc2ccc(OCc3cccnc3C(F)(F)F)cc2c1C(=O)O [Cpd 109, 2-methyl-5-{[2-(trifluoromethyl)pyridin-3-yl]methoxy}-1-benzothiophene-3-carboxylic acid] | < 1 |
| Cc1ncc(COc2ccc3sc(C)c(C(=O)NC4(CO)CC4)c3c2)s1 [Cpd 022, N-[1-(hydroxymethyl)cyclopropyl]-2-methyl-5-[(2-methyl-1,3-thiazol-5-yl)methoxy]-1-benzothiophene-3-carboxamide] | 1 to 20 |

More lines, now with the values ahead:

| IC50 [µM] | SMILES |
| --- | --- |
| 1 to 20 | CN1CCC(NC(=O)c2c(C(F)F)sc3ccc(OCc4ccccc4)cc23)CC1 [Cpd 128, 5-(benzyloxy)-2-(difluoromethyl)-N-(1-methylpiperidin-4-yl)-1-benzothiophene-3-carboxamide] |
| < 1 | COc1ncccc1COc1ccc2sc(C)c(C(=O)N[C@@H](CO)C(N)=O)c2c1 [Cpd 139, (2S)-3-hydroxy-2-({5-[(2-methoxypyridin-3-yl)methoxy]-2-methyl-1-benzothiophen-3-yl}formamido)propanamide] |
| < 1 | O=C(O)c1c(C(F)F)sc2ccc(OCc3ccccc3)cc12 [Cpd 150, 5-(benzyloxy)-2-(difluoromethyl)-1-benzothiophene-3-carboxylic acid] |
| > 20 | CNC(=O)c1c(C(F)F)sc2ccc(OCc3ccccc3)cc12 [Cpd 135, 5-(benzyloxy)-2-(difluoromethyl)-N-methyl-1-benzothiophene-3-carboxamide] |
| < 1 | CNC(=O)C(C)(CO)NC(=O)c1c(C)sc2ccc(OCc3cnc(C)s3)cc12 (single isomer, unassigned) [Cpd 132 - En2, 3-hydroxy-N,2-dimethyl-2-({2-methyl-5-[(2-methyl-1,3-thiazol-5-yl)methoxy]-1-benzothiophen-3-yl}formamido)propanamide] |
| < 1 | CNC(=O)C1(NC(=O)c2c(C)sc3ccc(OCc4cnc(C)s4)cc23)CCOC1 (single isomer, unassigned) [Cpd 133 - En1, N-methyl-3-{2-methyl-5-[(2-methyl-1,3-thiazol-5-yl)methoxy]-1-benzothiophene-3-amido}oxolane-3-carboxamide] |
| 1 to 20 | Cc1ncsc1COc1ccc2sc(C)c(C(=O)NC3CCN(C)CC3)c2c1 [Cpd 130, 2-methyl-5-[(4-methyl-1,3-thiazol-5-yl)methoxy]-N-(1-methylpiperidin-4-yl)-1-benzothiophene-3-carboxamide] |
| < 1 | COc1ncccc1COc1ccc2sc(C)c(C(=O)NC(C)(C)C(N)=O)c2c1 [Cpd 141, 2-({5-[(2-methoxypyridin-3-yl)methoxy]-2-methyl-1-benzothiophen-3-yl}formamido)-2-methylpropanamide] |
| < 1 | Cc1ncsc1COc1ccc2sc(C)c(C(=O)NCCN(C)C)c2c1 [Cpd 118, N-[2-(dimethylamino)ethyl]-2-methyl-5-[(4-methyl-1,3-thiazol-5-yl)methoxy]-1-benzothiophene-3-carboxamide] |
| < 1 | COc1ncccc1COc1ccc2sc(C)c(C(=O)N[C@H](C)C(N)=O)c2c1 [Cpd 140, (2R)-2-({5-[(2-methoxypyridin-3-yl)methoxy]-2-methyl-1-benzothiophen-3-yl}formamido)propanamide] |
| < 1 | Cc1ncsc1COc1ccc2sc(C)c(C(=O)NC3CCN(C)C3)c2c1 (stereo not shown) [Cpd 126, 2-methyl-5-[(4-methyl-1,3-thiazol-5-yl)methoxy]-N-(1-methylpyrrolidin-3-yl)-1-benzothiophene-3-carboxamide] |
